In general, IC50 refers to the midpoint of a concentration-inhibition curve. A higher IC50 goes with weaker potency in that assay.

Here are results for 19 compounds from patent US7807841B2, “Spiro-containing compounds and compositions as modulators of steroid hormone nuclear receptors” (IRM LLC, priority 2005, dated 2010).

Molecules are shown by their SMILES.

The target of one experiment is T1, Androgen Receptor (AR) (Homo sapiens, UniProt P10275).
T1 sequence (P10275 1-920 Q868H): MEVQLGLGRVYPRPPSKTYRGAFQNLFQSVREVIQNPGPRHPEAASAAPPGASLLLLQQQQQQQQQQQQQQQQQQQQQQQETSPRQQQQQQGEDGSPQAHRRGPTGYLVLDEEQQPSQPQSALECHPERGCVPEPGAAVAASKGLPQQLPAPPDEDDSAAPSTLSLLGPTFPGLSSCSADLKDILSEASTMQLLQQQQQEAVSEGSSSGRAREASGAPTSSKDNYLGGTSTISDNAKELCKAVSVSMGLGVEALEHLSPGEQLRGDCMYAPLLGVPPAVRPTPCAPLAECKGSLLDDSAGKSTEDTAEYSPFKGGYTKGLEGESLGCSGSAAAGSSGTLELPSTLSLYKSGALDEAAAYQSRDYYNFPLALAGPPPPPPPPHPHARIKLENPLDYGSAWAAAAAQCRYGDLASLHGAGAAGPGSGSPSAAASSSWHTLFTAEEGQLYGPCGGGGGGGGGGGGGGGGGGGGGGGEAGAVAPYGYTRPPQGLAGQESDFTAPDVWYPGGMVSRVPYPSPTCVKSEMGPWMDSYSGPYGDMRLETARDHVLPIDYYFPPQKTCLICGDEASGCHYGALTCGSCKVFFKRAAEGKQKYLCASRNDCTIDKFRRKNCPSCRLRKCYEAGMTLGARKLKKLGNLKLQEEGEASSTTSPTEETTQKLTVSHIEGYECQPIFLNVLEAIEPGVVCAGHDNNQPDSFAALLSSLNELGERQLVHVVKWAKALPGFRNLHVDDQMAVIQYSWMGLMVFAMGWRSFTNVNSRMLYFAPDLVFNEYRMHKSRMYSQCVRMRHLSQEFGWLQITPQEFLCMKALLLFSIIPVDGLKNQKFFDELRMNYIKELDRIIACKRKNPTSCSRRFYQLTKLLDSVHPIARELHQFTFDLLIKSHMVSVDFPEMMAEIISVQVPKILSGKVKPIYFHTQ
The experiment is described as follows: Functional assay of androgen receptor antagonism (MMTV luciferase reporter in MDA-kb2 cells). It counts as cell-based. Conditions: antagonism of dihydrotestosterone (0.3 nM)-induced AR activity. The protocol:
The AR antagonist activity of the compounds is determined with the MDA-Kb2 cell line (ATCC), which stably expresses the MMTV luciferase reporter. The MMTV promoter is a mouse mammary tumor virus promoter that contains androgen receptor response elements. […] Upon stimulation with AR ligands, such as dihydrotestosterone, the MMTV luciferase reporter can be activated.
The assay is performed in 384 well plates. Briefly, MDA-kb2 cells are plated in 384 well plates at a density of approximately 2.4×10^4 cells/well in 50 μl medium. The medium is supplemented with 5% charcoal-dextran treated fetal bovine serum (Hyclone). Twenty four hours later, compounds prepared in DMSO are transferred to the cells. The cells are then stimulated with 0.3 nM final concentration of dihydrotestosterone (Sigma) and incubated at 37° C. for another 24 hours before the luciferase activity is assayed with 20 μl of Bright-Glo (Promega) using a luminometer (CLIPR). The expression of luciferase is used as an indicator of dihydrotestosterone-induced AR trans-activation. Each compound is tested in duplicates with a 12-concentration titration. IC50 values (defined as the concentration of test compound required to antagonize 50% of dihydrotestosterone-induced AR activity) are determined from the dose-response curve.

Experiment [1] addresses T2, Glucocorticoid Receptor (GR) (Homo sapiens, UniProt P04150).
T2 construct: expressed in transfected cells; host or cells: COS-7 cells (ATCC)
T2 sequence (P04150 541-778 isoform P04150-3): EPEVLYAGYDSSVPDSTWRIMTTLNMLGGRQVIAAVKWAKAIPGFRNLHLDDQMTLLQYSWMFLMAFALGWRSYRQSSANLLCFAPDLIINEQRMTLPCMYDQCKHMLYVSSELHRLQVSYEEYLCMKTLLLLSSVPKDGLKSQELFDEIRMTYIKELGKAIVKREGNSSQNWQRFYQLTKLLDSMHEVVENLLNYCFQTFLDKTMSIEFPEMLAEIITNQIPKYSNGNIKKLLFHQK
In words: Functional assay of glucocorticoid receptor antagonism (Gal4-GR-LBD luciferase reporter, COS-7 cells). The format is cell-based. As to conditions: antagonism of dexamethasone (10 nM)-induced GR activity. The protocol: The GR antagonist activity of the compounds is determined in a mammalian two hybrid reporter system. The ligand binding domain of GR (GR-LBD, sequence encoding amino acid 541-778) is fused to the DNA binding domain of the yeast Gal4 gene. The GR gene is cloned from a human lung cDNA library with PCR.
The assay is performed in 384 well plates: COS-7 cells (ATCC) are transfected with expression vectors for Gal-4-GR-LBD and a luciferase reporter vector containing Gal4 binding sequence (pG5-Luc). Cells are plated in 384 well plates immediately after transfection (approximately 8000 cells/well in 50 μl medium). The medium is supplemented with 3% charcoal-dextran treated fetal bovine serum (Hyclone). Twenty four hours after transfection, compounds prepared in DMSO are transferred to the cells. The cells are then stimulated with 10 nM final concentration of dexamethasone (Sigma) and incubated at 37° C. for another 24 hours before the luciferase activity is assayed with 20 μl of Bright-Glo (Promega) using a luminometer (CLIPR). The expression of luciferase is used as an indicator of dexamethasone-induced GR trans-activation. Each compound is tested in duplicates with a 12-concentration titration. IC50 values (defined as the concentration of test compound required to antagonize 50% of dexamethasone-induced GR activity) are determined from the dose-response curve.
A general note: In a reporter assay the amount or activity of a reporter protein is the signal.

For `CC12CCCC(=O)N1CC1(O2)c2ccccc2C=Cc2ccccc21` (centres unmarked) [FRS-4], the IC50 (on Androgen Receptor (AR); in experiment [1]) was greater than 10000 nM in each case.

`O=C1CCC2(c3ccc(F)cc3)OC3(CN12)c1ccccc1C=Cc1ccccc13` (centres unmarked) [FRS-3]: the IC50 was 1000 to 10000 nM on Androgen Receptor (AR) and greater than 10000 nM in experiment [1].

Regarding `CCCC12CCC(=O)N1CC1(O2)c2ccccc2C=Cc2ccccc21` (centres unmarked) [FRS-9], the IC50 against Androgen Receptor (AR) is 100 to 1000 nM; in experiment [1], 1000 to 10000 nM.

Turning to `CC12CCCCC(=O)N1CC1(O2)c2ccccc2C=Cc2ccccc21` (centres unmarked) [FRS-6], the results for the IC50 (at Androgen Receptor (AR); in experiment [1]) were 1000 to 10000 nM and greater than 10000 nM, respectively.

Turning to `O=C1CCCC2(C(F)(F)F)OC3(CN12)c1ccccc1C=Cc1ccccc13` (centres unmarked) [FRS-11], the IC50 was in the range of 100 to 1000 nM at Androgen Receptor (AR) and 1000 to 10000 nM in experiment [1].

Regarding `O=C1CCC2(C3CC3)OC3(CN12)c1ccccc1C=Cc1ccccc13` (centres unmarked) [FRS-10], the IC50 against Androgen Receptor (AR) lay in the range of 100 to 1000 nM; in experiment [1] it was 1000 to 10000 nM.

With `CC1(C)OC2(CN1S(C)(=O)=O)c1ccccc1C=Cc1ccccc12` [SOXS-4], the IC50 at Androgen Receptor (AR) is 1000 to 10000 nM; in experiment [1] it was greater than 10000 nM.

On to `CC12CCC(=O)N1CC1(O2)c2ccccc2C=Cc2ccccc21` (centres unmarked) [FRS-1], for which the IC50 was 100 to 1000 nM against Androgen Receptor (AR) and greater than 10000 nM in experiment [1].

Turning to `O=C1CCC2(c3cccs3)OC3(CN12)c1ccccc1C=Cc1ccccc13` (centres unmarked) [FRS-8], the values for the IC50 (against Androgen Receptor (AR); in experiment [1]) were 100 to 1000 nM and 1000 to 10000 nM, respectively.

`CC1(C)OC2(CN1C(=O)Nc1ccc(F)cc1F)c1ccccc1C=Cc1ccccc12` [SOXS-1]: the IC50 (at Androgen Receptor (AR); in experiment [1]) was greater than 10000 nM in each case.

For the compound `CC12CCC(=O)N1CC1(O2)c2ccccc2CCc2ccccc21` (centres unmarked) [FRS-13], the half-inhibitory concentration (IC50) is 100 to 1000 nM against Androgen Receptor (AR) and greater than 10000 nM in experiment [1].

Turning to `COc1ccc(C23CCC(=O)N2CC2(O3)c3ccccc3C=Cc3ccccc32)cc1` (centres unmarked) [FRS-5], the IC50 (on Androgen Receptor (AR); in experiment [1]) was greater than 10000 nM in each case.

As for `CC12CCC(=O)N1CC1(O2)c2ccccc2C=Cc2ccccc21` (single isomer, unassigned) [FRS-1 (Chiral Synthesis)], the half-inhibitory concentration (IC50) against Androgen Receptor (AR) was 100 to 1000 nM; in experiment [1], 1000 to 10000 nM.

As to `CC(=O)N1CC2(OC13CCCCC3)c1ccccc1C=Cc1ccccc12` [SOXS-6], the IC50 at Androgen Receptor (AR) is 1000 to 10000 nM; in experiment [1] it was greater than 10000 nM.

In the case of `CC(=O)N1CC2(OC1(C)C)c1ccccc1C=Cc1ccccc12` [SOXS-3], the IC50 (at Androgen Receptor (AR); in experiment [1]) was 1000 to 10000 nM throughout.

With `CC12CCC(=O)N1CC1(O2)c2ccccc2CCc2ccccc21` (single isomer, unassigned) [FRS-13 (Chiral Synthesis)], the IC50 was 100 to 1000 nM on Androgen Receptor (AR) and greater than 10000 nM in experiment [1].

Regarding `O=C1CCC2(c3ccccc3)OC3(CN12)c1ccccc1C=Cc1ccccc13` (centres unmarked) [FRS-2], the half-maximal inhibitory concentration (IC50) against Androgen Receptor (AR) was 100 to 1000 nM; in experiment [1], greater than 10000 nM.

As to `Oc1ccc(C2=NCC3(O2)c2ccccc2C=Cc2ccccc23)cc1` [OXS-1], the IC50 at Androgen Receptor (AR) is 1000 to 10000 nM; in experiment [1], greater than 10000 nM.

Turning to `CC12CCCC(=O)N1CC1(O2)c2ccccc2CCc2ccccc21` (centres unmarked) [FRS-14], the IC50 is 1000 to 10000 nM at Androgen Receptor (AR) and greater than 10000 nM in experiment [1].
